target: T1, active p38 alpha enzyme (Upstate Biotechnology) (Homo sapiens, UniProt Q16539); experiment: p38α biochemical assay (ATP turnover, luminescent detection, Cambrex PKlight); conditions: p38α biochemical assay, Table 1 Biological Activity
T1 construct: purchased Upstate Biotechnology
Method in brief: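 Active human p38α was incubated with full-length MapkapK2 protein as substrate and 1.4 uM ATP (final) for 2 hours at 30C. Buffer: 200 mM Tris, 100 mM MgCl2, 1.5 mM EGTA, 4 mM CaCl2, 20 mM MOPS, 1 mM EDTA, 1% glycerol, 0.1% β-mercaptoethanol, 1 mg/ml BSA. Total ATP turnover read by luminescence.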

T1 sequence (Q16539 whole entry): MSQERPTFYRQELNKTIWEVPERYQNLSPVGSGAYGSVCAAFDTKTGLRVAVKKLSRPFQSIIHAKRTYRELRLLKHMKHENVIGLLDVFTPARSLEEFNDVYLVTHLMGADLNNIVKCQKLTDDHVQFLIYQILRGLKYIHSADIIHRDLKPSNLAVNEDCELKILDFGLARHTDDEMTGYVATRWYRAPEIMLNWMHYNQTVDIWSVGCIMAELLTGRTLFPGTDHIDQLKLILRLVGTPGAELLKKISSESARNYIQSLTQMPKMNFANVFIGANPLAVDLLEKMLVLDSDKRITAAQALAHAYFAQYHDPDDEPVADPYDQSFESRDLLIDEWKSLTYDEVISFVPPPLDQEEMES

| IC50 | SMILES |
| --- | --- |
| ≤ 1000 nM | CC(C)NC(=O)c1csc(-c2oc(CN3CCN(C(=O)/C=C/c4ccccc4O)CC3)nc2-c2ccc(F)cc2)n1 [Example 403] |
| > 1000 nM | CC(=O)c1ccc(C(=O)N2CCN(Cc3nc(-c4ccc(F)cc4)c(-c4nc(C(=O)NC(C)C)cs4)o3)CC2)cc1 [Example 404] |
| > 1000 nM | CC(C)NC(=O)c1csc(-c2oc(CN3CCN(C(=O)/C=C/c4cccc(O)c4)CC3)nc2-c2ccc(F)cc2)n1 [Example 405] |
| > 1000 nM | CC(=O)c1cccc(C(=O)N2CCN(Cc3nc(-c4ccc(F)cc4)c(-c4nc(C(=O)NC(C)C)cs4)o3)CC2)c1 [Example 406] |
| ≤ 1000 nM | CC(=O)c1ccccc1C(=O)N1CCN(Cc2nc(-c3ccc(F)cc3)c(-c3nc(C(=O)NC(C)C)cs3)o2)CC1 [Example 407] |
| > 1000 nM | CC(C)NC(=O)c1csc(-c2oc(CN3CCN(C(=O)c4ccc(C(C)C)cc4)CC3)nc2-c2ccc(F)cc2)n1 [Example 408] |
| ≤ 1000 nM | Cc1ccccc1CCC(=O)N1CCN(Cc2nc(-c3ccc(F)cc3)c(-c3nc(C(=O)NC(C)C)cs3)o2)CC1 [Example 409] |
| ≤ 1000 nM | Cc1cccc(CCC(=O)N2CCN(Cc3nc(-c4ccc(F)cc4)c(-c4nc(C(=O)NC(C)C)cs4)o3)CC2)c1 [Example 410] |
| > 1000 nM | CCC(C(=O)N1CCN(Cc2nc(-c3ccc(F)cc3)c(-c3nc(C(=O)NC(C)C)cs3)o2)CC1)c1ccccc1 (stereo not drawn) [Example 411] |
| ≤ 1000 nM | Cc1cc(C)c(C(=O)N2CCN(Cc3nc(-c4ccc(F)cc4)c(-c4nc(C(=O)NC(C)C)cs4)o3)CC2)c(C)c1 [Example 412] |
| > 1000 nM | CCCc1ccc(C(=O)N2CCN(Cc3nc(-c4ccc(F)cc4)c(-c4nc(C(=O)NC(C)C)cs4)o3)CC2)cc1 [Example 413] |
| > 1000 nM | CC(C)NC(=O)c1csc(-c2oc(CN3CCN(C(=O)c4ccc5c(c4)OCO5)CC3)nc2-c2ccc(F)cc2)n1 [Example 414] |
| > 1000 nM | CC(C)NC(=O)c1csc(-c2oc(CN3CCN(C(=O)/C=C/c4ccccc4F)CC3)nc2-c2ccc(F)cc2)n1 [Example 415] |
| > 1000 nM | CCOc1ccccc1C(=O)N1CCN(Cc2nc(-c3ccc(F)cc3)c(-c3nc(C(=O)NC(C)C)cs3)o2)CC1 [Example 416] |
| > 1000 nM | Cc1ccccc1OCC(=O)N1CCN(Cc2nc(-c3ccc(F)cc3)c(-c3nc(C(=O)NC(C)C)cs3)o2)CC1 [Example 417] |
| ≤ 1000 nM | CC(C)NC(=O)c1csc(-c2oc(CN3CCN(C(=O)CCc4ccccc4O)CC3)nc2-c2ccc(F)cc2)n1 [Example 418] |
| ≤ 1000 nM | COc1ccccc1CC(=O)N1CCN(Cc2nc(-c3ccc(F)cc3)c(-c3nc(C(=O)NC(C)C)cs3)o2)CC1 [Example 419] |
| > 1000 nM | CC(C)NC(=O)c1csc(-c2oc(CN3CCN(C(=O)C(C)c4ccc(O)cc4)CC3)nc2-c2ccc(F)cc2)n1 (stereo not drawn) [Example 420] |
| > 1000 nM | CC(C)NC(=O)c1csc(-c2oc(CN3CCN(C(=O)c4ccccc4[N+](=O)[O-])CC3)nc2-c2ccc(F)cc2)n1 [Example 421] |
| > 1000 nM | CC(C)NC(=O)c1csc(-c2oc(CN3CCN(C(=O)c4cccc([N+](=O)[O-])c4)CC3)nc2-c2ccc(F)cc2)n1 [Example 422] |
| ≤ 1000 nM | COc1cccc(O)c1C(=O)N1CCN(Cc2nc(-c3ccc(F)cc3)c(-c3nc(C(=O)NC(C)C)cs3)o2)CC1 [Example 423] |

| IC50 | SMILES |
| --- | --- |
| ≤ 1000 nM | COc1ccc(O)c(C(=O)N2CCN(Cc3nc(-c4ccc(F)cc4)c(-c4nc(C(=O)NC(C)C)cs4)o3)CC2)c1 [Example 424] |
| ≤ 1000 nM | COc1ccc(C(=O)N2CCN(Cc3nc(-c4ccc(F)cc4)c(-c4nc(C(=O)NC(C)C)cs4)o3)CC2)c(O)c1 [Example 425] |
| ≤ 1000 nM | COc1ccc(C(=O)N2CCN(Cc3nc(-c4ccc(F)cc4)c(-c4nc(C(=O)NC(C)C)cs4)o3)CC2)cc1O [Example 426] |
| ≤ 1000 nM | CC(C)NC(=O)c1csc(-c2oc(CN3CCN(C(=O)c4cc(O)c(O)c(O)c4)CC3)nc2-c2ccc(F)cc2)n1 [Example 427] |
| ≤ 1000 nM | CC(C)NC(=O)c1csc(-c2oc(CN3CCN(C(=O)Cc4ccc(O)c(F)c4)CC3)nc2-c2ccc(F)cc2)n1 [Example 428] |
| > 1000 nM | Cc1cc(C(=O)N2CCN(Cc3nc(-c4ccc(F)cc4)c(-c4nc(C(=O)NC(C)C)cs4)o3)CC2)cc(Cl)n1 [Example 429] |
| > 1000 nM | CC(C)NC(=O)c1csc(-c2oc(CN3CCN(C(=O)Cc4c(F)cccc4F)CC3)nc2-c2ccc(F)cc2)n1 [Example 430] |
| ≤ 1000 nM | CC(C)NC(=O)c1csc(-c2oc(CN3CCN(C(=O)c4cccc5ccccc45)CC3)nc2-c2ccc(F)cc2)n1 [Example 431] |
| ≤ 1000 nM | CC(C)NC(=O)c1csc(-c2oc(CN3CCN(C(=O)c4ccc(Cl)cc4O)CC3)nc2-c2ccc(F)cc2)n1 [Example 432] |
| ≤ 1000 nM | CC(C)NC(=O)c1csc(-c2oc(CN3CCN(C(=O)c4cc(Cl)ccc4O)CC3)nc2-c2ccc(F)cc2)n1 [Example 433] |
| ≤ 1000 nM | CC(C)NC(=O)c1csc(-c2oc(CN3CCN(C(=O)c4ccc5ncccc5c4)CC3)nc2-c2ccc(F)cc2)n1 [Example 434] |
| ≤ 1000 nM | CC(C)NC(=O)c1csc(-c2oc(CN3CCN(C(=O)c4cnc(O)c(Cl)c4)CC3)nc2-c2ccc(F)cc2)n1 [Example 435] |
| > 1000 nM | CC(C)NC(=O)c1csc(-c2oc(CN3CCN(C(=O)c4ccc(F)cc4Cl)CC3)nc2-c2ccc(F)cc2)n1 [Example 436] |
| > 1000 nM | CC(C)NC(=O)c1csc(-c2oc(CN3CCN(C(=O)c4c(F)cccc4Cl)CC3)nc2-c2ccc(F)cc2)n1 [Example 437] |
| > 1000 nM | CC(C)NC(=O)c1csc(-c2oc(CN3CCN(C(=O)CNC(=O)OC(C)(C)C)CC3)nc2-c2ccc(F)cc2)n1 [Example 438] |
| > 1000 nM | Cc1c(C(=O)N2CCN(Cc3nc(-c4ccc(F)cc4)c(-c4nc(C(=O)NC(C)C)cs4)o3)CC2)oc2ccccc12 [Example 439] |
| ≤ 1000 nM | CC(C)NC(=O)c1csc(-c2oc(CN3CCN(C(=O)CC4Cc5ccccc5C4)CC3)nc2-c2ccc(F)cc2)n1 [Example 440] |
| ≤ 1000 nM | CC(C)NC(=O)c1csc(-c2oc(CN3CCN(C(=O)C4CCc5ccccc5C4)CC3)nc2-c2ccc(F)cc2)n1 (stereo not drawn) [Example 441] |
| ≤ 1000 nM | COc1ccccc1/C=C/C(=O)N1CCN(Cc2nc(-c3ccc(F)cc3)c(-c3nc(C(=O)NC(C)C)cs3)o2)CC1 [Example 442] |
| > 1000 nM | CC(C)NC(=O)c1csc(-c2oc(CN3CCN(C(=O)c4csc5ccccc45)CC3)nc2-c2ccc(F)cc2)n1 [Example 443] |
| > 1000 nM | CC(C)NC(=O)c1csc(-c2oc(CN3CCN(C(=O)c4cc5ccccc5s4)CC3)nc2-c2ccc(F)cc2)n1 [Example 444] |

| IC50 | SMILES |
| --- | --- |
| > 1000 nM | CCCCc1ccc(C(=O)N2CCN(Cc3nc(-c4ccc(F)cc4)c(-c4nc(C(=O)NC(C)C)cs4)o3)CC2)cc1 [Example 445] |
| > 1000 nM | CC(C)NC(=O)c1csc(-c2oc(CN3CCN(C(=O)c4ccc(C(C)(C)C)cc4)CC3)nc2-c2ccc(F)cc2)n1 [Example 446] |
| ≤ 1000 nM | CC(C)NC(=O)c1csc(-c2oc(CN3CCN(C(=O)c4ccc(N(C)C=O)cc4)CC3)nc2-c2ccc(F)cc2)n1 [Example 447] |
| ≤ 1000 nM | CC(=O)Nc1cccc(C(=O)N2CCN(Cc3nc(-c4ccc(F)cc4)c(-c4nc(C(=O)NC(C)C)cs4)o3)CC2)c1 [Example 448] |
| > 1000 nM | CC(C)NC(=O)c1csc(-c2oc(CN3CCN(C(=O)COc4ccccc4C=O)CC3)nc2-c2ccc(F)cc2)n1 [Example 449] |
| > 1000 nM | CC(=O)Oc1ccc(C(=O)N2CCN(Cc3nc(-c4ccc(F)cc4)c(-c4nc(C(=O)NC(C)C)cs4)o3)CC2)cc1 [Example 450] |
| > 1000 nM | COC(=O)c1ccc(C(=O)N2CCN(Cc3nc(-c4ccc(F)cc4)c(-c4nc(C(=O)NC(C)C)cs4)o3)CC2)cc1 [Example 451] |
| ≤ 1000 nM | CC(=O)Oc1cccc(C(=O)N2CCN(Cc3nc(-c4ccc(F)cc4)c(-c4nc(C(=O)NC(C)C)cs4)o3)CC2)c1 [Example 452] |
| > 1000 nM | CC(=O)Oc1ccccc1C(=O)N1CCN(Cc2nc(-c3ccc(F)cc3)c(-c3nc(C(=O)NC(C)C)cs3)o2)CC1 [Example 453] |
| > 1000 nM | CC(C)NC(=O)c1csc(-c2oc(CN3CCN(C(=O)Cc4ccc5c(c4)OCO5)CC3)nc2-c2ccc(F)cc2)n1 [Example 454] |
| > 1000 nM | CCCOc1ccc(C(=O)N2CCN(Cc3nc(-c4ccc(F)cc4)c(-c4nc(C(=O)NC(C)C)cs4)o3)CC2)cc1 [Example 455] |
| ≤ 1000 nM | CC(C)NC(=O)c1csc(-c2oc(CN3CCN(C(=O)c4ccc(OC(C)C)cc4)CC3)nc2-c2ccc(F)cc2)n1 [Example 456] |
| ≤ 1000 nM | Cc1cccc([N+](=O)[O-])c1C(=O)N1CCN(Cc2nc(-c3ccc(F)cc3)c(-c3nc(C(=O)NC(C)C)cs3)o2)CC1 [Example 457] |
| > 1000 nM | Cc1cccc(C(=O)N2CCN(Cc3nc(-c4ccc(F)cc4)c(-c4nc(C(=O)NC(C)C)cs4)o3)CC2)c1[N+](=O)[O-] [Example 458] |
| > 1000 nM | Cc1ccc([N+](=O)[O-])c(C(=O)N2CCN(Cc3nc(-c4ccc(F)cc4)c(-c4nc(C(=O)NC(C)C)cs4)o3)CC2)c1 [Example 459] |
| > 1000 nM | Cc1c(C(=O)N2CCN(Cc3nc(-c4ccc(F)cc4)c(-c4nc(C(=O)NC(C)C)cs4)o3)CC2)cccc1[N+](=O)[O-] [Example 460] |
| > 1000 nM | COc1ccc(OC)c(C(=O)N2CCN(Cc3nc(-c4ccc(F)cc4)c(-c4nc(C(=O)NC(C)C)cs4)o3)CC2)c1 [Example 461] |
| ≤ 1000 nM | COc1ccc(C(=O)N2CCN(Cc3nc(-c4ccc(F)cc4)c(-c4nc(C(=O)NC(C)C)cs4)o3)CC2)c(OC)c1 [Example 462] |
| ≤ 1000 nM | COc1cccc(OC)c1C(=O)N1CCN(Cc2nc(-c3ccc(F)cc3)c(-c3nc(C(=O)NC(C)C)cs3)o2)CC1 [Example 463] |
| > 1000 nM | COc1cc(OC)cc(C(=O)N2CCN(Cc3nc(-c4ccc(F)cc4)c(-c4nc(C(=O)NC(C)C)cs4)o3)CC2)c1 [Example 464] |
| > 1000 nM | COc1cccc(C(=O)N2CCN(Cc3nc(-c4ccc(F)cc4)c(-c4nc(C(=O)NC(C)C)cs4)o3)CC2)c1OC [Example 465] |
